Experimental data as given in US10294202B2, “Pyrrolidinones as herbicides” (FMC Corporation, priority 2013, dated 2019).

Columns and labels:
lambsquarters = assay: Test E preemergence herbicide test; type: in vivo, Chenopodium album; design: key: 0 = no effect, 100 = complete control
Excerpt: Seeds of plant species selected from corn (Zea mays), soybean (Glycine max), velvetleaf (Abutilon theophrasti), lambsquarters (Chenopodium album), wild poinsettia (Euphorbia heterophylla), pigweed, palmer (palmer pigweed, Amaranthus palmeri), waterhemp (common waterhemp, Amaranthus rudis), surinam grass (Brachiaria decumbens), crabgrass, large (large crabgrass, Digitaria sanguinalis), crabgrass, Brazil (Brazilian crabgrass, Digitaria horizontalis), panicum, fall (fall panicum, Panicum dichotomiflorum), foxtail, giant (giant foxtail, Setaria faberii), foxtail, green (green foxtail, Setaria viridis), goosegrass (Eleusine indica), johnsongrass (Sorghum halepense), ragweed (common ragweed, Ambrosia elatior), barnyardgrass (Echinochloa crus-galli), sandbur (southern sandbur, Cenchrus echinatus), arrowleaf […] rhombifolia), ryegrass, Italian (Italian ryegrass, Lolium multiflorum), dayflower, VA (Virginia dayflower, Commelina virginica), field bindweed (Convolvulus arvensis), morningglory (Ipomoea coccinea), nightshade (eastern black nightshade, Solanum ptycanthum), kochia (Kochia scoparia), nutsedge, yellow (yellow nutsedge, Cyperus esculentus), cocklebur (common cocklebur, Xanthium strumarium), smartweed (ladysthumb smartweed, Polygonum Persicaria) and beggarticks (hairy beggarticks, Bidens pilosa), were planted into a silt loam soil and treated preemergence with test chemicals formulated in a non-phytotoxic solvent mixture which included a surfactant. Treated plants and controls were maintained in a greenhouse for 21 days, after which time all species were compared to controls and visually evaluated. Plant response ratings, summarized in Table E, are based on a scale of 0 to 100 where 0 is no effect and 100 is complete control. A dash (-) response means no test result.

foxtail, green = assay: Test D pre-/postemergence herbicide test; type: in vivo, Setaria viridis; settings: for Plant response rating: Foxtail, Green, scale 0 to 100; for Plant response rating, Foxtail, Green: scale 0 to 100 (0 no effect, 100 complete control)
Excerpt: (§1) Seeds of plant species selected from bluegrass (annual bluegrass, Poa annua), blackgrass (Alopecurus myosuroides), canarygrass (littleseed canarygrass, Phalaris minor), chickweed (common chickweed, Stellaria media), galium (catchweed bedstraw, Galium aparine), bromegrass, downy (downy bromegrass, Bromus tectorum), field poppy (Papaver rhoeas), field violet (Viola arvensis), foxtail, green (green foxtail, Setaria viridis), deadnettle (henbit deadnettle, Lamium amplexicaule), ryegrass, Italian (Italian ryegrass, Lolium multiflorum), kochia (Kochia scoparia), lambsquarters (Chenopodium album), oilseed rape (Brassica napus), pigweed (Amaranthus retroflexus), chamomile (scentless chamomile, Matricaria inodora), Russian thistle (Salsola kali), speedwell (bird's-eye speedwell, Veronica persica), barley, spring (spring barley, Hordeum vulgare), wheat, spring (spring wheat, Triticum aestivum), buckwheat, wild (wild buckwheat, Polygonum convolvulus), mustard, wild (wild mustard, Sinapis arvensis), oat, wild (wild oat, Avena fatua), radish, wild (wild radish, Raphanus raphanistrum), […]), barley, winter (winter barley, Hordeum vulgare), and wheat, winter (winter wheat, Triticum aestivum) were planted into a silt loam soil and treated preemergence with test chemicals formulated in a non-phytotoxic solvent mixture which included a surfactant. At the same time, these species were planted in pots containing Redi-Earth® planting medium (Scotts Company, 14111 Scottslawn Road, Marysville, Ohio 43041) comprising spaghnum peat moss, vermiculite, wetting agent and starter nutrients and treated with postemergence applications of the test chemicals formulated in the same manner. Plants ranged in height from 2 to 18 cm (1- to 4-leaf stage). Treated plants and controls were maintained in a controlled growth environment for 7 to 21 days after which time all species were compared to controls and visually evaluated. Plant response ratings, summarized in Table D, are based on a scale of 0 to 100 where 0 is no effect and 100 is complete control. A dash (-) response means no test result.

deadnettle = assay: Test D pre-/postemergence herbicide test; type: in vivo, Lamium amplexicaule; settings: for Plant response rating: Deadnettle, scale 0 to 100; for Plant response rating, Deadnettle: scale 0 to 100 (0 no effect, 100 complete control)
Excerpt: as §1

oilseed rape = assay: Test D pre-/postemergence herbicide test; type: in vivo, Brassica napus; settings: for Plant response rating: Postemergence, Oilseed Rape, scale 0 to 100; for Plant response rating, Oilseed Rape: Preemergence, scale 0 to 100 (0 no effect, 100 complete control)
Excerpt: as §1

radish, wild = assay: Test D pre-/postemergence herbicide test; type: in vivo, Raphanus raphanistrum; settings: for Plant response rating: Postemergence, Radish, Wild, scale 0 to 100; for Plant response rating, Radish, Wild: Preemergence, scale 0 to 100 (0 no effect, 100 complete control)
Excerpt: as §1

Structure (SMILES): O=C1NCC(c2ccc(OC(F)F)cc2)C1C(=O)Nc1cccc(F)c1F (racemic) [Compound 350]
- Plant response rating, Lambsquarters (lambsquarters; 31 g ai/ha): 80
- Plant response rating, Lambsquarters (lambsquarters; 62 g ai/ha): 60
- Plant response rating, Lambsquarters (lambsquarters; 125 g ai/ha): 98
- Plant response rating, Lambsquarters (lambsquarters; 250 g ai/ha): 95

Structure (SMILES): O=C1NCC(c2cc(F)c(F)cc2F)C1C(=O)Nc1cccc(F)c1F (stereo not shown) [Compound 50]
- Plant response rating (foxtail, green; Postemergence, 16 g ai/ha): 0
- Plant response rating (foxtail, green; Postemergence, 31 g ai/ha): 0
- Plant response rating (foxtail, green; Postemergence, 62 g ai/ha): 0
- Plant response rating (foxtail, green; Postemergence, 125 g ai/ha): 0
- Plant response rating, Foxtail, Green (foxtail, green; Preemergence, 62 g ai/ha): 50
- Plant response rating, Foxtail, Green (foxtail, green; Preemergence, 16 g ai/ha): 0
- Plant response rating, Foxtail, Green (foxtail, green; Preemergence, 31 g ai/ha): 0
- Plant response rating (foxtail, green; Preemergence, 125 g ai/ha): 40
- Plant response rating (deadnettle; Postemergence, 16 g ai/ha): 0
- Plant response rating (deadnettle; Postemergence, 31 g ai/ha): 0
- Plant response rating (deadnettle; Postemergence, 62 g ai/ha): 0
- Plant response rating (deadnettle; Postemergence, 125 g ai/ha): 0
- Plant response rating, Deadnettle (deadnettle; Preemergence, 62 g ai/ha): 100
- Plant response rating, Deadnettle (deadnettle; Preemergence, 16 g ai/ha): 50
- Plant response rating, Deadnettle (deadnettle; Preemergence, 31 g ai/ha): 50
- Plant response rating (deadnettle; Preemergence, 125 g ai/ha): 100
- Plant response rating (oilseed rape; 16 g ai/ha): 5
- Plant response rating (oilseed rape; 31 g ai/ha): 5
- Plant response rating (oilseed rape; 62 g ai/ha): 5
- Plant response rating (oilseed rape; 125 g ai/ha): 5
- Plant response rating, Oilseed Rape (oilseed rape; 62 g ai/ha): 0
- Plant response rating, Oilseed Rape (oilseed rape; 125 g ai/ha): 0
- Plant response rating, Oilseed Rape (oilseed rape; 16 g ai/ha): 0
- Plant response rating, Oilseed Rape (oilseed rape; 31 g ai/ha): 0
- Plant response rating (radish, wild; 16 g ai/ha): 0
- Plant response rating (radish, wild; 31 g ai/ha): 0
- Plant response rating (radish, wild; 62 g ai/ha): 0
- Plant response rating (radish, wild; 125 g ai/ha): 0
- Plant response rating, Radish, Wild (radish, wild; 62 g ai/ha): 0
- Plant response rating, Radish, Wild (radish, wild; 16 g ai/ha): 0

Structure (SMILES): O=C1NCC(c2ccc(Cl)c(F)c2)C1C(=O)Nc1cccc(F)c1F (stereo not shown) [Compound 52]
- Plant response rating (foxtail, green; Postemergence, 16 g ai/ha): 0
- Plant response rating (foxtail, green; Postemergence, 31 g ai/ha): 0
- Plant response rating (foxtail, green; Postemergence, 62 g ai/ha): 0
- Plant response rating (foxtail, green; Postemergence, 125 g ai/ha): 0
- Plant response rating (foxtail, green; Postemergence, 250 g ai/ha): 0
- Plant response rating, Foxtail, Green (foxtail, green; Preemergence, 62 g ai/ha): 0
- Plant response rating, Foxtail, Green (foxtail, green; Preemergence, 16 g ai/ha): 0
- Plant response rating, Foxtail, Green (foxtail, green; Preemergence, 31 g ai/ha): 0
- Plant response rating (foxtail, green; Preemergence, 125 g ai/ha): 0
- Plant response rating (foxtail, green; Preemergence, 250 g ai/ha): 60
- Plant response rating (deadnettle; Postemergence, 16 g ai/ha): 0
- Plant response rating (deadnettle; Postemergence, 31 g ai/ha): 0
- Plant response rating (deadnettle; Postemergence, 62 g ai/ha): 0
- Plant response rating (deadnettle; Postemergence, 125 g ai/ha): 20
- Plant response rating (deadnettle; Postemergence, 250 g ai/ha): 25
- Plant response rating, Deadnettle (deadnettle; Preemergence, 62 g ai/ha): 0
- Plant response rating, Deadnettle (deadnettle; Preemergence, 16 g ai/ha): 0
- Plant response rating, Deadnettle (deadnettle; Preemergence, 31 g ai/ha): 0
- Plant response rating (deadnettle; Preemergence, 125 g ai/ha): 0
- Plant response rating (deadnettle; Preemergence, 250 g ai/ha): 30
- Plant response rating (oilseed rape; 16 g ai/ha): 0
- Plant response rating (oilseed rape; 31 g ai/ha): 0
- Plant response rating (oilseed rape; 62 g ai/ha): 0
- Plant response rating (oilseed rape; 125 g ai/ha): 10
- Plant response rating (oilseed rape; 250 g ai/ha): 25
- Plant response rating, Oilseed Rape (oilseed rape; 62 g ai/ha): 0
- Plant response rating, Oilseed Rape (oilseed rape; 125 g ai/ha): 10
- Plant response rating, Oilseed Rape (oilseed rape; 16 g ai/ha): 0
- Plant response rating, Oilseed Rape (oilseed rape; 31 g ai/ha): 0
- Plant response rating, Oilseed Rape (oilseed rape; 250 g ai/ha): 10
- Plant response rating, Radish, Wild (radish, wild; 16 g ai/ha): 0

Structure (SMILES): O=C1NCC(c2ccc(C(F)(F)F)cc2)C1C(=O)Nc1ccccc1F (stereo not shown) [Compound 231]
- Plant response rating (foxtail, green; Postemergence, 31 g ai/ha): 10
- Plant response rating (foxtail, green; Postemergence, 62 g ai/ha): 65
- Plant response rating (foxtail, green; Postemergence, 125 g ai/ha): 70
- Plant response rating (foxtail, green; Postemergence, 250 g ai/ha): 70
- Plant response rating, Foxtail, Green (foxtail, green; Preemergence, 62 g ai/ha): 80
- Plant response rating, Foxtail, Green (foxtail, green; Preemergence, 125 g ai/ha): 95
- Plant response rating, Foxtail, Green (foxtail, green; Preemergence, 31 g ai/ha): 45
- Plant response rating (foxtail, green; Preemergence, 250 g ai/ha): 98
- Plant response rating (deadnettle; Postemergence, 31 g ai/ha): 35
- Plant response rating (deadnettle; Postemergence, 62 g ai/ha): 70
- Plant response rating (deadnettle; Postemergence, 125 g ai/ha): 35
- Plant response rating (deadnettle; Postemergence, 250 g ai/ha): 70
- Plant response rating, Deadnettle (deadnettle; Preemergence, 62 g ai/ha): 75
- Plant response rating, Deadnettle (deadnettle; Preemergence, 125 g ai/ha): 60
- Plant response rating, Deadnettle (deadnettle; Preemergence, 31 g ai/ha): 35
- Plant response rating (deadnettle; Preemergence, 250 g ai/ha): 85
- Plant response rating (oilseed rape; 31 g ai/ha): 15
- Plant response rating (oilseed rape; 62 g ai/ha): 10
- Plant response rating (oilseed rape; 125 g ai/ha): 20
- Plant response rating (oilseed rape; 250 g ai/ha): 40
- Plant response rating, Oilseed Rape (oilseed rape; 62 g ai/ha): 0
- Plant response rating, Oilseed Rape (oilseed rape; 125 g ai/ha): 45
- Plant response rating, Oilseed Rape (oilseed rape; 31 g ai/ha): 0
- Plant response rating, Oilseed Rape (oilseed rape; 250 g ai/ha): 55
- Plant response rating (radish, wild; 31 g ai/ha): 30
- Plant response rating (radish, wild; 62 g ai/ha): 70
- Plant response rating (radish, wild; 125 g ai/ha): 75
- Plant response rating (radish, wild; 250 g ai/ha): 70
- Plant response rating, Radish, Wild (radish, wild; 62 g ai/ha): 0
- Plant response rating, Radish, Wild (radish, wild; 125 g ai/ha): 0
- Plant response rating, Radish, Wild (radish, wild; 31 g ai/ha): 0
- Plant response rating, Radish, Wild (radish, wild; 250 g ai/ha): 0
